According to patent US12612407B2, “Imidazo[2,1-f][1,2,4]triazin-4-amine derivatives as TLR7 agonist” (BEIGENE, LTD., priority 2020, dated 2026):
pEC50: −log10 of the molar value.

Target: T1, human TLR7 (Homo sapiens, UniProt Q9NYK1)
T1 construct: host or cells: HEK293 (HEK-Blue hTLR7)
T1 sequence (Q9NYK1 27-1049): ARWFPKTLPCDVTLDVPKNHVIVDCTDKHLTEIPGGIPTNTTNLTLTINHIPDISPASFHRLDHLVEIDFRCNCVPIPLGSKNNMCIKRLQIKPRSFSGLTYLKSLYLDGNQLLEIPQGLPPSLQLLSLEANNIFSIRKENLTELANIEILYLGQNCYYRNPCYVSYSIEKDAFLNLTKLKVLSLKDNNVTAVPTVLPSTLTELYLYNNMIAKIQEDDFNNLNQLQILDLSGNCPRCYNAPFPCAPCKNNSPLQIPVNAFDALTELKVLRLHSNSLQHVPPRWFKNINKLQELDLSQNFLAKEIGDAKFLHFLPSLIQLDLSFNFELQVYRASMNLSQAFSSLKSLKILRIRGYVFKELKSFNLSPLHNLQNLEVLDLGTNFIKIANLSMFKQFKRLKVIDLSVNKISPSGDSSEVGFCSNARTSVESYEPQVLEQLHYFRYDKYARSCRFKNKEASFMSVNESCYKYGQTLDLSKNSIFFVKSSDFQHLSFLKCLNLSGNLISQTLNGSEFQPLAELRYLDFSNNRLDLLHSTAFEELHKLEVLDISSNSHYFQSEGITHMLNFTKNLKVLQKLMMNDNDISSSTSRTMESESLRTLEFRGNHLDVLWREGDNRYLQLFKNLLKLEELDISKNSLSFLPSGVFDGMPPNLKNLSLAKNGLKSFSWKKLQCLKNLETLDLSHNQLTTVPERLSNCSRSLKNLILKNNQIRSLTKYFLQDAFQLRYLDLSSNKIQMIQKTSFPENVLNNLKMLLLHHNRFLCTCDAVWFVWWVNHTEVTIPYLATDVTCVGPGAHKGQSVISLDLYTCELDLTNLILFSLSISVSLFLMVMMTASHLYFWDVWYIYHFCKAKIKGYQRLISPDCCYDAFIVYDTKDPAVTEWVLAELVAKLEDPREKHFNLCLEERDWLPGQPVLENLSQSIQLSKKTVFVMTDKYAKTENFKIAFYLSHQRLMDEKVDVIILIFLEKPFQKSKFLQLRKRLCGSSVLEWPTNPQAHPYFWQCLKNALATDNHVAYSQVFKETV
Assay: HEK293-Blue hTLR7 Reporter Assay (QUANTI-BLUE, SEAP readout)
Type: cell-based
Settings: HEK-Blue-hTLR7 cells
Protocol: HEK293-Blue hTLR7 Reporter Assay: HEK-Blue-hTLR7 cell line (Invivogen, Cat. No. hkb-htlr7) was designed so that the expression of the secreted embryonic alkaline phosphatase (SEAP) was induced by activating NF-κ and AP-1 via stimulating human TLR7 with TLR7 agonists. HEK-Blue-hTLR7 cells were seeded at a density of 4×10^4 cells/well in a volume of 180 μL in a 96-well plate in DMEM (Cat. No. 11965-092) supplemented with 10% (v/v) heat-inactivated fetal bovine serum (FBS) (Gibco, 10099-1441), 100 U/ml penicillin and 100 μg/ml streptomycin (Gibco, 15140122) containing 50 U/mL penicillin, […] and 10% (v/v) heat-inactivated fetal bovine serum. The cells were settled for 5 hrs, then treated with increasing amounts of tested compounds at 37° C. for 24 hrs. Then 20 μL of the supernatant from each well was incubated with 180 μL Quanti-blue substrate solution at 37° C. for 10-30 mins before the activity of the SEAP was determined at 620-655 nm using a spectrophotometer. The EC50 value for each compound was calculated with GraphPad Prism software using the sigmoidal dose-response function.

[1] = 24 hrs treatment, Table 1, B1-B232

Row | Compound | pEC50 [1] | pEC50 (Table 2, C1-C6)
1 | 1-((4-amino-7-((5-methyl-6-(piperazin-1-yl)pyridin-3-yl)methyl)imidazo[2,1-f][1,2,4]triazin-2-yl)oxy)hexan-3-ol [Compound B157] | 6.18 | 
2 | 2-butoxy-7-((5-(piperidin-4-yl)pyridin-2-yl)methyl)imidazo[2,1-f][1,2,4]triazin-4-amine [Compound B77] | 6.51 | 
3 | 2-butoxy-7-((5-methyl-6-(2,7-diazaspiro[3.5]nonan-7-yl)pyridin-3-yl)methyl)imidazo[2,1-f][1,2,4]triazin-4-amine [Compound B86] | 6.69 | 
4 | 2-butoxy-7-((6-(4-ethylpiperazin-1-yl)-5-methylpyridin-3-yl)methyl)imidazo[2,1-f][1,2,4]triazin-4-amine [Compound B115] | 6.72 | 
5 | 2-butoxy-7-((6-(piperidin-4-yl)-5-(trifluoromethyl)pyridin-3-yl)methyl)imidazo[2,1-f][1,2,4]triazin-4-amine [Compound B28] | 6.52 | 
6 | 2-butyl-7-((5-methyl-6-(piperazin-1-yl)pyridin-3-yl)methyl)imidazo[2,1-f][1,2,4]triazine-2,4-diamine [Compound B13] | 7.32 | 
7 | 6-propoxy-3-(4-(pyrrolidin-1-ylmethyl)benzyl)imidazo[1,2-b]pyridazin-8-amine [Compound C4] |  | < 5.00
8 | CCC[C@H](C)Nc1nc(N)c2ncc(Cc3cnc(N4CCNCC4)c(C)c3)n2n1 (single isomer, unassigned) [Compound B148] | 8.19 | 
9 | CCC[C@H](C)Nc1nc(N)c2ncc(Cc3cnc(N4CCC(N(C)C)CC4)c(C)c3)n2n1 (single isomer, unassigned) [Compound B173] | 8.64 | 
10 | CCC[C@@H](C)Nc1nc(N)c2ncc(Cc3cnc(N4CCC(CN(C)C)CC4)c(C)c3)n2n1 (single isomer, unassigned) [Compound B178] | 7.77 | 
11 | CCC[C@@H](C)Nc1nc(N)c2ncc(Cc3cnc(N4CCC(N(C)C)CC4)c(C)c3)n2n1 (single isomer, unassigned) [Compound B185] | 7.60 | 
12 | CCC[C@@H](C)Nc1nc(N)c2ncc(Cc3cnc(N4CCNCC4)c(C)c3)n2n1 (single isomer, unassigned) [Compound B207] | 7.25 | 
13 | CCC[C@@H](C)Nc1nc(N)c2ncc(Cc3cnc(N4CCC(CNC)CC4)c(C)c3)n2n1 (single isomer, unassigned) [Compound B214] | 7.64 | 
14 | CCC[C@H](C)Oc1nc(N)c2ncc(Cc3cnc(N4CCC(CNC)CC4)c(C)c3)n2n1 (single isomer, unassigned) [Compound B221] | 8.41 | 
15 | CCC[C@@H](C)Oc1nc(N)c2ncc(Cc3cnc(N4CCC(CNC)CC4)c(C)c3)n2n1 (single isomer, unassigned) [Compound B222] | 7.22 | 
16 | CCC[C@H](CC)Oc1nc(N)c2ncc(Cc3cnc(N4CCNCC4)c(C)c3)n2n1 (single isomer, unassigned) [Compound B224] | 8.29 | 
17 | CCC[C@@H](CC)Oc1nc(N)c2ncc(Cc3cnc(N4CCNCC4)c(C)c3)n2n1 (single isomer, unassigned) [Compound B225] | 7.59 | 

Row | Compound | pEC50 [1] | pEC50 (Table 2, C1-C6)
18 | CCCCOc1nc(N)c2ncc(Cc3cnc(N4CCN(C)CC4)c(Cl)c3)n2n1 [Compound B1, 2-butoxy-7-((5-chloro-6-(4-methylpiperazin-1-yl)pyridin-3-yl)methyl)imidazo[2,1-f][1,2,4]triazin-4-amine] | 6.30 | 
19 | CCCCOc1nc(N)c2ncc(Cc3cnc(N4CCNCC4)c(Cl)c3)n2n1 [Compound B2, 2-butoxy-7-((5-chloro-6-(piperazin-1-yl)pyridin-3-yl)methyl)imidazo[2,1-f][1,2,4]triazin-4-amine] | 6.36 | 
20 | CCCCOc1nc(N)c2ncc(Cc3ccc(C4CCNCC4)cc3)n2n1 [Compound B3, 2-butoxy-7-(4-(piperidin-4-yl)benzyl)imidazo[2,1-f][1,2,4]triazin-4-amine] | 6.49 | 
21 | C=CC(=O)N1CCN(c2ncc(Cc3cnc4c(N)nc(OCCCC)nn34)cc2Cl)CC1 [Compound B4, 1-(4-(5-((4-amino-2-butoxyimidazo[2,1-f][1,2,4]triazin-7-yl)methyl)-3-chloropyridin-2-yl)piperazin-1-yl)prop-2-en-1-one] | < 5.00 | 
22 | COCCOc1nc(N)c2ncc(Cc3cnc(N4CCNCC4)c(Cl)c3)n2n1 [Compound B5, 7-((5-chloro-6-(piperazin-1-yl)pyridin-3-yl)methyl)-2-(2-methoxyethoxy)imidazo[2,1-f][1,2,4]triazin-4-amine] | 5.91 | 
23 | CCCCOc1nc(N)c2ncc(Cc3ccc(N4CCNCC4)nc3)n2n1 [Compound B6, 2-butoxy-7-((6-(piperazin-1-yl)pyridin-3-yl)methyl)imidazo[2,1-f][1,2,4]triazin-4-amine] | 6.38 | 
24 | CCCCOc1nc(N)c2ncc(Cc3cnc(N4CCNCC4)cc3Cl)n2n1 [Compound B7, 2-butoxy-7-((4-chloro-6-(piperazin-1-yl)pyridin-3-yl)methyl)imidazo[2,1-f][1,2,4]triazin-4-amine] | 5.62 | 
25 | CCCCOc1nc(N)c2ncc(Cc3cnc(N4CCNCC4)c(C)c3)n2n1 [Compound B8, 2-butoxy-7-((5-methyl-6-(piperazin-1-yl)pyridin-3-yl)methyl)imidazo[2,1-f][1,2,4]triazin-4-amine] | 6.87 | 
26 | CCCCOc1nc(N)c2ncc(Cc3cnc(N4CCNCC4)c(F)c3)n2n1 [Compound B9, 2-butoxy-7-((5-fluoro-6-(piperazin-1-yl)pyridin-3-yl)methyl)imidazo[2,1-f][1,2,4]triazin-4-amine] | 6.46 | 
27 | CCCCOc1nc(N)c2ncc(Cc3cnc(N4CCNCC4)c(C(F)(F)F)c3)n2n1 [Compound B10, 2-butoxy-7-((6-(piperazin-1-yl)-5-(trifluoromethyl)pyridin-3-yl)methyl)imidazo[2,1-f][1,2,4]triazin-4-amine] | 6.38 | 
28 | CCCCOc1nc(N)c2ncc(Cc3cnc(N4CCNCC4)c(OC)c3)n2n1 [Compound B11, 2-butoxy-7-((5-methoxy-6-(piperazin-1-yl)pyridin-3-yl)methyl)imidazo[2,1-f][1,2,4]triazin-4-amine] | 6.61 | 
29 | CCCCOc1nc(N)c2ncc(Cc3cnc(N4CCN(C(=O)CN(C)C)CC4)c(C)c3)n2n1 [Compound B12, 1-(4-(5-((4-amino-2-butoxyimidazo[2,1-f][1,2,4]triazin-7-yl)methyl)-3-methylpyridin-2-yl)piperazin-1-yl)-2-(dimethylamino)ethan-1-one] | 7.36 | 
30 | CCCCOc1nc(N)c2ncc(Cc3ccc(C4CCN(C(=O)CN(C)C)CC4)cc3)n2n1 [Compound B14, 1-(4-(4-((4-amino-2-butoxyimidazo[2,1-f][1,2,4]triazin-7-yl)methyl)phenyl)piperidin-1-yl)-2-(dimethylamino)ethan-1-one] | 7.02 | 
31 | CCCCOc1nc(N)c2ncc(Cc3ccc(C4CCNCC4)cn3)n2n1 [Compound B15, 2-butoxy-7-((5-(piperidin-4-yl)pyridin-2-yl)methyl)imidazo[2,1-f][1,2,4]triazin-4-amine] | 6.29 | 
32 | CCCCOc1nc(N)c2ncc(Cc3ccc(N4CCNCC4)cn3)n2n1 [Compound B16, 2-butoxy-7-((5-(piperazin-1-yl)pyridin-2-yl)methyl)imidazo[2,1-f][1,2,4]triazin-4-amine] | 5.84 | 
33 | CCCCOc1nc(N)c2ncc(Cc3cnc(C4CCNCC4)c(OC)c3)n2n1 [Compound B17, 2-butoxy-7-((5-methoxy-6-(piperidin-4-yl)pyridin-3-yl)methyl)imidazo[2,1-f][1,2,4]triazin-4-amine] | 6.83 | 
34 | CCCCNc1nc(N)c2ncc(Cc3ccc(C4CCNCC4)cc3)n2n1 [Compound B18, N2-butyl-7-(4-(piperidin-4-yl)benzyl)imidazo[2,1-f][1,2,4]triazine-2,4-diamine] | 6.77 | 
